Test: In vitro microsomal metabolic stability assay, rat
Assay type: in vitro ADME
Conditions: rat liver microsomes 0.25 mg/mL, 1.0 μM compound, NADPH
Procedure: Materials. Rat, Dog, Monkey and Human liver microsomes (20 mg/mL) were obtained from Xenotech, LLC (Lenexa, Kans.). P-nicotinamide adenine dinucleotide phosphate, reduced form (NADPH), magnesium chloride (MgCl2), and dimethyl sulfoxide (DMSO) were purchased from Sigma-Aldrich.
Methods. […] The 10 mM stock solutions were diluted to 100 μM in DMSO. In each cluster polypropylene tube, 190.7 μL of 100 mM phosphate buffer, pH 7.4 was added, then 2.5 μL of liver mocrosomes (20 mg/mL, rat, dog, monkey or human) was added, then a 2 μL aliquot of the 100 μM test compound was added, and the mixture was pre-warmed for 10 minutes. Reactions were initiated by addition of 4.8 μL of pre-warmed NADPH solution (100 mM in 100 mM phosphate buffer). The final reaction volume was 200 μL and contained 0.25 mg/mL rat, dog, monkey or human liver microsomes, 1.0 μM test compound, and 2.4 mM NADPH in 0.1 M potassium phosphate buffer, pH 7.4. The reaction mixtures were incubated at 37° C., and the reactions were quenched at 0, 15, 30 and 60 minutes by adding 200 μL of ice-cold quench solution (ACN:MeOH:0.1% formic acid in water 2:2:1) containing internal standard, n=3 per time point. The tubes were centrifuged and supernatants were analyzed for amounts of the test compound remaining by LC-MS/MS. The HPLC system included a Phenomenex Luna C8 column, 3 micron, 2 mm diameter×30 mm long eluted with a gradient mobile phase consisting of 0.1% formic acid in water or in acetonitrile. The analytes were detected by MS/MS with Electrospray Ionization (ESI) in the mode of multiple reaction monitoring (MRM). The injection volume was 10 μL.

% remaining (0 min): 100%
% remaining (15 min): 109%
% remaining (30 min): 105%
% remaining (60 min): 92.2%
SMILES: [2H]C([2H])([2H])c1cc(F)ccc1Oc1cc(C(F)(F)F)ccc1C(=O)Nc1cc[nH]c(=O)c1 [Compound 7, 2-(4-fluoro-2-(methyl-d3)phenoxy)-N-(2-oxo-1,2-dihydropyridin-4-yl)-4-(trifluoromethyl)benzamide]
